Experimental data from PMC7830330, “A New CDK2 Inhibitor with 3-Hydrazonoindolin-2-One Scaffold Endowed with Anti-Breast Cancer Activity: Design, Synthesis, Biological Evaluation, and In Silico Insights” (Molecules, 2021).

Tests used:
Assay type in all cases: biochemical
c-Met [1] = target: T1, c-Met (Homo sapiens, UniProt P08581); assay: Kinase-Glo Plus luminescence kinase assay, single dose […] (weak, partial inhibition)
CDK2 = target: T2, CDK2 (Homo sapiens, UniProt P24941); assay: in vitro kinase assay, dose-response on CDK2/E (Kinase-Glo Plus luminescence described for CDK2/cyclin A2)
T2 construct: with cyclin E (IC50)

c-Met [2] = target: T1, c-Met; assay: Kinase-Glo Plus luminescence kinase assay, single dose […]

T1 sequence (P08581 25-307): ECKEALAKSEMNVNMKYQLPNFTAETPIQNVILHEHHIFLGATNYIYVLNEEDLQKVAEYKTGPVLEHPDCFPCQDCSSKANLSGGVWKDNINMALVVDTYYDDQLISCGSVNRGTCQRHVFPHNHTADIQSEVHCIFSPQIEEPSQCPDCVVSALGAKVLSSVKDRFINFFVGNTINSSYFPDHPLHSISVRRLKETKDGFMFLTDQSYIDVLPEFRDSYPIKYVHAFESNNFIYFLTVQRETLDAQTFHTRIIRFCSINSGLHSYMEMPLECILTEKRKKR
T1 sequence (P08581 308-1390): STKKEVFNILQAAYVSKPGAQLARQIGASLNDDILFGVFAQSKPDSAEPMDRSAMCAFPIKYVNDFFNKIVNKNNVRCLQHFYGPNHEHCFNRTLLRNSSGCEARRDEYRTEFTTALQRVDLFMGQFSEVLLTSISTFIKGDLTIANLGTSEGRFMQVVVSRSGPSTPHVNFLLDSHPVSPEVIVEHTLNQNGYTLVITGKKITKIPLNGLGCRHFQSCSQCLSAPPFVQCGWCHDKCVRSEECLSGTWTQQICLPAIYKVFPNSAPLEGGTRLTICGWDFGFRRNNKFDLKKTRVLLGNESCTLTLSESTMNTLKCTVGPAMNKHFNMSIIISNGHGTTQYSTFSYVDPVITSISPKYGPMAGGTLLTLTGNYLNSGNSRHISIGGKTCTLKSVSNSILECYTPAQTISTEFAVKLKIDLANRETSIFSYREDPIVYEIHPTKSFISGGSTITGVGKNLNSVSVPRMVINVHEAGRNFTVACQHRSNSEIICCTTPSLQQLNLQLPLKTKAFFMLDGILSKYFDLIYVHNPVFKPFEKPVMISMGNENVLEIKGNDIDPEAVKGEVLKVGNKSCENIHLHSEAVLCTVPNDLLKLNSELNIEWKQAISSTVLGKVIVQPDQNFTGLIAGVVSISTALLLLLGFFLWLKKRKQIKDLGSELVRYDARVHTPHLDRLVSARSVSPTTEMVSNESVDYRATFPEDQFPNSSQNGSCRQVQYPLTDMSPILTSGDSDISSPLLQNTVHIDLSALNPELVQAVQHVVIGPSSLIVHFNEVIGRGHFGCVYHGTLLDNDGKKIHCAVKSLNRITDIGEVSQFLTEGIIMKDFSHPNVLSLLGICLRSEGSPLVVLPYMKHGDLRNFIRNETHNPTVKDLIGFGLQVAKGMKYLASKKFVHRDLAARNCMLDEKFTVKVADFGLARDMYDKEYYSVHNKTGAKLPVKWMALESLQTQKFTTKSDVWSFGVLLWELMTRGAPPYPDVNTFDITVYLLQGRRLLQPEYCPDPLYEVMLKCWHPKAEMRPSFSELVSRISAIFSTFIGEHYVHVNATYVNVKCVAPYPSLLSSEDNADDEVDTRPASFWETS

`COc1ccc2c(c1)/C(=N\NC(=O)Cc1c[nH]c3ccccc13)C(=O)N2` [HI 5] was tested, and the inhibition at 10 µM (c-Met [1]) was 27% and the IC50 (CDK2) was 6.32 µM.
For `CN[C@@H]1C[C@H]2O[C@@](C)([C@@H]1OC)n1c3ccccc3c3c4c(c5c6ccccc6n2c5c31)C(=O)NC4` [Staurosporine], the inhibition at 10 µM (c-Met [2]) was 100%.
